# Calls of active or inactive are those of the source.
# How the values were obtained:
# [1] = target: T1, G-protein coupled receptor 55 (Homo sapiens, UniProt Q9Y2T6); assay: selective activators of receptor GPR55 – imaging, U2OS cells, beta-arrestin-GFP redistribution, primary screen (AID 1961); type: functional
# [2] = target: DNA damage-inducible transcript 3 protein (Mus musculus, UniProt P35639); type: functional, Cricetulus griseus
# [3] = target: Voltage-dependent T-type calcium channel subunit alpha-1H (Homo sapiens, UniProt O95180); assay: human CACNA1H calcium influx blockade – cell-based, synthetic library set 1, calcium flux (AID 493022); type: functional
# [4] = target: Mu-type opioid receptor (Homo sapiens, UniProt P35372); assay: SAR Analysis of Antagonists of the MOR Receptor using an Image-Based Assay - Set 3. [Related pubchem assays (depositor defined):AID1777, AID1785, AID1786, AID1966, AID2133, AID2136, AID2284, AID2285, AID2420]; type: functional
# [5] = target: T2, Kappa-type opioid receptor (Homo sapiens, UniProt P41145); assay: SAR analysis of small molecule antagonists of the kappa opioid receptor via a luminescent beta-arrestin assay - Set 4. [Related pubchem assays (depositor defined):AID1777, AID1778, AID1785, AID1786, AID1966, AID2133, AID2136, AID2285]; type: functional
# T2 sequence (P41145 whole entry): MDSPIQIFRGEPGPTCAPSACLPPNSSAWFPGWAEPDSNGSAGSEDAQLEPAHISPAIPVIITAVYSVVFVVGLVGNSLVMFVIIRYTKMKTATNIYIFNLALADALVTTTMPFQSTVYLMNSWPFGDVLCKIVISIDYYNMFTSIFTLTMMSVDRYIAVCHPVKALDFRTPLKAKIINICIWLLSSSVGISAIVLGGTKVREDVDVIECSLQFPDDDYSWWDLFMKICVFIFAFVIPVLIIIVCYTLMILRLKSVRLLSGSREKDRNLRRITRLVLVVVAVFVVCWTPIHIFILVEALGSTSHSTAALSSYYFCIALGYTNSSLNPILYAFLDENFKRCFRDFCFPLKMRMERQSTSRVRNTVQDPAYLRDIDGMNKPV
# [6] = target: Delta-type opioid receptor (Homo sapiens, UniProt P41143); assay: SAR Analysis of Antagonists of the DOR Receptor using an Image-Based Assay - Set 3. [Related pubchem assays (depositor defined):AID1777, AID1785]; type: functional;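 note: U2OS cells expressing DOR1 and beta-arrestin GFP stimulated with 100 nM SNC80; imaging of GFP-tagged beta-arrestin moving into spots after receptor activation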
# Sequence of Delta-type opioid receptor (P41143 whole entry): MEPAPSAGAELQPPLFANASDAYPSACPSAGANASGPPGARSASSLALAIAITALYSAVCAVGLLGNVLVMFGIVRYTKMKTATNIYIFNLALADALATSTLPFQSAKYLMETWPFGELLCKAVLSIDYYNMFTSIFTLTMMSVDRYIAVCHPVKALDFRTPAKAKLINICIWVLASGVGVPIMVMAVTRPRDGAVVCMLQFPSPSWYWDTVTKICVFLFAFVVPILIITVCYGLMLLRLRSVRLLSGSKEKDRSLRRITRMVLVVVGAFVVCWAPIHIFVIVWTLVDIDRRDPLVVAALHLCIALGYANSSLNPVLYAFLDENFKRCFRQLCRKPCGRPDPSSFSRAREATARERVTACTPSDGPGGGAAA
# [7] = target: T2, Kappa-type opioid receptor; assay: SAR analysis of Antagonists of the Kappa Opioid Receptor (KOR) using an Image-Based Assay - Set 4. [Related pubchem assays (depositor defined):AID1777, AID1785]; type: functional
# [8] = tested on: Saccharomyces cerevisiae; assay: S. cerevisiae Caspase-1/ASC signal blockers IC50, NALP1 inhibitor project selectivity test (AID 488863); type: functional, organism-based
# [9] = Luminescence Cell-Based Dose Retest to Confirm Inhibitors of Cancer Stem Cells. [Related pubchem assays (depositor defined):AID2717, AID2721]; type: functional; conditions: Homo sapiens
# [10] = target: NACHT, LRR and PYD domains-containing protein 1 (Homo sapiens, UniProt Q9C000); assay: NALP1 inhibitors in yeast, dose response, luminescent (AID 488860); type: functional
# [11] = target: Beta-galactosidase (Escherichia coli, UniProt Q8VNN2); assay: detection-enzyme interference by beta-gal modulators – biochemical, E. coli enzyme, set 3, artefact control for CCR6 antagonist project, dose response (AID 504712); type: functional
# Sequence of Beta-galactosidase (Q8VNN2 whole entry): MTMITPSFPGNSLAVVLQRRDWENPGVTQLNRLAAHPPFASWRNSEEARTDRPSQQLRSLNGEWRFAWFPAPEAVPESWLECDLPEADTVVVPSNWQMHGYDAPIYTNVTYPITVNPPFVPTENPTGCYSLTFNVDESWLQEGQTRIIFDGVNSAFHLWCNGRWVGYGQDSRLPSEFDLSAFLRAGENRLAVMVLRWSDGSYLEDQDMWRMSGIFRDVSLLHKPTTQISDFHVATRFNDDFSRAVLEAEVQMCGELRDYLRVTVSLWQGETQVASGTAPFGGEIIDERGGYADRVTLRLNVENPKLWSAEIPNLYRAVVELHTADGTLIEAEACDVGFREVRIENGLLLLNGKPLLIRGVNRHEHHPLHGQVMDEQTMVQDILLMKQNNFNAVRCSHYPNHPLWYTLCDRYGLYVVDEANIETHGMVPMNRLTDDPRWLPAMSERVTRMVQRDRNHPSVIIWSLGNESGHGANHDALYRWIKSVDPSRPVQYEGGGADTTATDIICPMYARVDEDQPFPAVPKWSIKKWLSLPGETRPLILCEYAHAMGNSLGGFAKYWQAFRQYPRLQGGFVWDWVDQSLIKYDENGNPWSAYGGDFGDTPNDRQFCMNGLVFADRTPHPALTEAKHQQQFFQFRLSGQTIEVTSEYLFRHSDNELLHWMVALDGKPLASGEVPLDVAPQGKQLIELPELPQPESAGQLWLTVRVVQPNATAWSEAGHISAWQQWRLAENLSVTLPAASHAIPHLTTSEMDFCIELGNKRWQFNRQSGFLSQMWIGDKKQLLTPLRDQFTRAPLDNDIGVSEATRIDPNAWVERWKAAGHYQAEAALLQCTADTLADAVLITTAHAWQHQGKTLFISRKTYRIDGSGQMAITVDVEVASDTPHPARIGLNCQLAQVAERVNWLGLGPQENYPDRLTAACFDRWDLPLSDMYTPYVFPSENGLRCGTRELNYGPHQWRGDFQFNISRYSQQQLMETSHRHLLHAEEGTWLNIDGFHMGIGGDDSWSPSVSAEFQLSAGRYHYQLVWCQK
# [12] = target: Heat shock protein HSP 90-alpha (Homo sapiens, UniProt P07900); type: functional, organism-based
# [13] = target: T3, Mannose-6-phosphate isomerase (Homo sapiens, UniProt P34949); assay: phosphomannose isomerase inhibition – biochemical, fluorescence intensity, confirmation (AID 1535)
# T3 sequence (P34949 whole entry): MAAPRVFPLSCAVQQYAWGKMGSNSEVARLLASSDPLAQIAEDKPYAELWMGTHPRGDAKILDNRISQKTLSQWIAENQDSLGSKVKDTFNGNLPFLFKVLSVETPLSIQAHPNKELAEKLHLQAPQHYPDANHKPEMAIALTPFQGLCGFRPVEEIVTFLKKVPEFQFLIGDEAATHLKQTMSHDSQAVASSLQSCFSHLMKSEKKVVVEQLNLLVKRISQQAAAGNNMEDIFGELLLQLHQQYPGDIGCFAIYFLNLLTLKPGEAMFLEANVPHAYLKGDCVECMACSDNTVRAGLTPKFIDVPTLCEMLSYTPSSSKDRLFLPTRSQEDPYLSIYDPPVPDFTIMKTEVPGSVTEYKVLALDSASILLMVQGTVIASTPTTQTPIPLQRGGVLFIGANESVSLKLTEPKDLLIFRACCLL
# [14] = target: Phosphomannomutase 2 (Homo sapiens, UniProt O15305); assay: Counter screen SAR assay for PMM2 inhibitors via a fluorescence intensity assay. [Related pubchem assays (depositor defined):AID1545, AID1574]
# [15] = Intein inhibitors as potential Tuberculosis drugs, a cytotoxicity screen. [Related pubchem assays (depositor defined):AID2221, AID2223, AID434968, AID435010, AID449749, AID449750, AID489010]; type: functional
# [16] = target: T4, Replicative DNA helicase DnaB (Mycobacterium tuberculosis, UniProt P9WMR3); assay: DnaB intein splicing inhibitors, dose response, biochemical, cell-free fluorescence (AID 449749); type: functional
# T4 sequence (P9WMR3 whole entry): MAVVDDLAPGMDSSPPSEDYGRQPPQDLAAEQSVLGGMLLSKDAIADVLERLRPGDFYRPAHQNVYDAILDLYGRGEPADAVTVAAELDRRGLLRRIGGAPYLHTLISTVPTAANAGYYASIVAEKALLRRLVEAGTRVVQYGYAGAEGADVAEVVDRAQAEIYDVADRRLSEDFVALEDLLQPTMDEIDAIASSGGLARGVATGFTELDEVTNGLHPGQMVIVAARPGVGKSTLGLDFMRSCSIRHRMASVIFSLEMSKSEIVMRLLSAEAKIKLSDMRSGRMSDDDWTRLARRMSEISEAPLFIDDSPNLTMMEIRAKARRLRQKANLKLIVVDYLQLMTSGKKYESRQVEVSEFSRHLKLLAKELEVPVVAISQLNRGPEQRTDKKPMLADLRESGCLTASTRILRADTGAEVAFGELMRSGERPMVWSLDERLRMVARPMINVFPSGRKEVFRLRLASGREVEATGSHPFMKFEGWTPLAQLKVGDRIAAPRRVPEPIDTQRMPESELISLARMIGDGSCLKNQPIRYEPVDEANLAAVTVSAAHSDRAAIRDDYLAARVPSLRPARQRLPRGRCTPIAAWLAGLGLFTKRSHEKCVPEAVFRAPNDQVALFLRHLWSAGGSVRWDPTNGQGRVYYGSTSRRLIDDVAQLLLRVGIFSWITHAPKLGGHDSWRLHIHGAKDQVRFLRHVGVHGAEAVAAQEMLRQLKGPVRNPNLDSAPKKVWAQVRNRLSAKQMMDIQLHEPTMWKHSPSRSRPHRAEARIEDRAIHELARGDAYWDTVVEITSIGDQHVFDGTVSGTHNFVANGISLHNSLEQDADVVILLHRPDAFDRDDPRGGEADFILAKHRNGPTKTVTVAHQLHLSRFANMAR
# [17] = target: T5, Protein RecA (Mycobacterium tuberculosis, UniProt P9WHJ3); assay: Fluorescence Cell-Free Homogeneous Dose Retest to Identify Inhibitors of RecA-Intein Splicing Activity. [Related pubchem assays (depositor defined):AID2097, AID2223, AID489010, AID492950]; type: functional
# T5 sequence (P9WHJ3 whole entry): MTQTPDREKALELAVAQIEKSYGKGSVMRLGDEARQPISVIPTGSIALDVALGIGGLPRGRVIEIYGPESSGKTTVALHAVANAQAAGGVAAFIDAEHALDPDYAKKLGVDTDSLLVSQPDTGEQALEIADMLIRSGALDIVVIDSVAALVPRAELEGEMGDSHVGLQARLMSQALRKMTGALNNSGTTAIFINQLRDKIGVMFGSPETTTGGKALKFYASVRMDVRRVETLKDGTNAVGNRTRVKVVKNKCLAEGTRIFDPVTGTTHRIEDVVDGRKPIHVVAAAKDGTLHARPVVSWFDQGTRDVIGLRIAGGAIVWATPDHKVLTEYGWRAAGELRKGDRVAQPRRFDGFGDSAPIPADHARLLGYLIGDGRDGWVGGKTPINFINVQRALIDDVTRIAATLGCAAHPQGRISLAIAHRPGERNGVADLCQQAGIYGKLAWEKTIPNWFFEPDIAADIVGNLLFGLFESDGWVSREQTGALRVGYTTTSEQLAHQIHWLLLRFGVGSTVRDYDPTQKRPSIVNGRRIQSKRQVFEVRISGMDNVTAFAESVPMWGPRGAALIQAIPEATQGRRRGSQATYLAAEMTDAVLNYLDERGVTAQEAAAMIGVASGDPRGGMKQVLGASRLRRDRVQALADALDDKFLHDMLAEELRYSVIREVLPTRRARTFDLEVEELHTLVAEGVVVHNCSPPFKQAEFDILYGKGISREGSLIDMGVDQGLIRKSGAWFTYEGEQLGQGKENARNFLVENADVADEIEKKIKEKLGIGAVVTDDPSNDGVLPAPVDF
# [18] = target: Melanocortin receptor 4 (Homo sapiens, UniProt P32245); type: functional, cell-based;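 note: Cell-based assay with luminescence read-out, confirmatory dose-response testing for agonist activity of biased ligands at MC4R; human U2OS cells with tagged receptor and beta-arrestin; potency of agonists that increase receptor coupling to beta-arrestin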
# Sequence of Melanocortin receptor 4 (P32245 whole entry, the tested form may be a part): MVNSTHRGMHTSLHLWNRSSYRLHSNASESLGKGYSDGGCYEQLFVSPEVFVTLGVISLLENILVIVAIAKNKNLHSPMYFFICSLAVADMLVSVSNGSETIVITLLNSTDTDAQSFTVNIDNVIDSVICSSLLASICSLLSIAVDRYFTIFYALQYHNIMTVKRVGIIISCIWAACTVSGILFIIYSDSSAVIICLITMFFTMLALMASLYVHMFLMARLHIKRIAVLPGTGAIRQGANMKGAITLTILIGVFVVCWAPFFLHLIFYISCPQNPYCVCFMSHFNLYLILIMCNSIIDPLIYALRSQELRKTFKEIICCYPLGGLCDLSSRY
# [19] = target: T6, Type-1 angiotensin II receptor (Homo sapiens, UniProt P30556); assay: agonist activity at AGTR1 – cell-based, uHTS hits, selectivity assay for APJ receptor agonist project, dose response (AID 488865); type: functional;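 note: beta-arrestin recruitment to AT1 measured by enzyme fragment complementation luminescence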
# T6 sequence (P30556 whole entry): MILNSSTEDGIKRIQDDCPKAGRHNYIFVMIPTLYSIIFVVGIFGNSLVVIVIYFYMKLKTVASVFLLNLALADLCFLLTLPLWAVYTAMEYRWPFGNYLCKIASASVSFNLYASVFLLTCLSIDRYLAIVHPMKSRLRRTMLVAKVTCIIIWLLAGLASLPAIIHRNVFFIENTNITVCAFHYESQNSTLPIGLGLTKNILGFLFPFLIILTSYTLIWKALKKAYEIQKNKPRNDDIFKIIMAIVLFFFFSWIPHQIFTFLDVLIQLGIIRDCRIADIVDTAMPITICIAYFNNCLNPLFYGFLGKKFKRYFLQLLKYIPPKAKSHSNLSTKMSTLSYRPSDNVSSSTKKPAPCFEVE
# [20] = target: Hexokinase (Trypanosoma brucei, UniProt Q38C41); assay: Confirmation assay for inhibitors of Trypanosoma brucei hexokinase 1-Analogue-first series. [Related pubchem assays (depositor defined):AID1430, AID1632, AID2516, AID2560, AID2579, AID2600, AID449725, AID492951]; type: functional
# Sequence of Hexokinase (Q38C41 whole entry): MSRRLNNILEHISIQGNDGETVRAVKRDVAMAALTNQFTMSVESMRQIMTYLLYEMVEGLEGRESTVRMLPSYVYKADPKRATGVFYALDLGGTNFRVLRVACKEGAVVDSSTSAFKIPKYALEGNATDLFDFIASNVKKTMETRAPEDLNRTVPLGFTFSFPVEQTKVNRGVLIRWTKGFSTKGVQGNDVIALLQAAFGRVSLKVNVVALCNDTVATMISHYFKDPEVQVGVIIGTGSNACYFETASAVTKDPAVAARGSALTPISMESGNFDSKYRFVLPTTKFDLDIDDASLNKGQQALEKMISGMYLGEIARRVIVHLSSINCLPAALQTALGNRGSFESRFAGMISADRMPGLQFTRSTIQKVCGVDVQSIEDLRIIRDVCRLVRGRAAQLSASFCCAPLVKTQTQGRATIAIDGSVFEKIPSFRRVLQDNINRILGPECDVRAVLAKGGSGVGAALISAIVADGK
# [21] = target: Coagulation factor XII (Homo sapiens, UniProt P00748); type: functional;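 note: activated factor XIIa alpha cleaving a fluorogenic AMC peptide substrate; inhibitor potency from loss of enzyme activity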
# Sequence of Coagulation factor XII (P00748 20-372 limits assumed): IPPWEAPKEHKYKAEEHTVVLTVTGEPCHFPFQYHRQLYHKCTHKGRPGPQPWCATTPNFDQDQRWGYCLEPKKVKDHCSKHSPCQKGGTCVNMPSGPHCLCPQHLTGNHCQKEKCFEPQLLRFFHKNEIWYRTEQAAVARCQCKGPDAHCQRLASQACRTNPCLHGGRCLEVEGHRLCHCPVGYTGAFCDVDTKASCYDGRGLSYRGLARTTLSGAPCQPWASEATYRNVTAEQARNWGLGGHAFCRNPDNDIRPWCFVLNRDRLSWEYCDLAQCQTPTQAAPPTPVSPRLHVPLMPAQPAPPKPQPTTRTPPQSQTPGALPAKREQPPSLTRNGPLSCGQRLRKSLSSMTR
# Sequence of Coagulation factor XII (P00748 373-615 limits assumed): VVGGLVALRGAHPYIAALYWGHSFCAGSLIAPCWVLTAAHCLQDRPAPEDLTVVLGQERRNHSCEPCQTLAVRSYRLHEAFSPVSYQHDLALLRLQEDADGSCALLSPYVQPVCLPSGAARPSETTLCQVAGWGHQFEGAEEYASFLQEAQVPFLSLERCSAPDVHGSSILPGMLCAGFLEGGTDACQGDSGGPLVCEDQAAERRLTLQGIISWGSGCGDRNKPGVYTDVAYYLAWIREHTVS
# [22] = target: T7, Cannabinoid receptor 2 (Homo sapiens, UniProt P34972); assay: SAR analysis of antagonists of the Cannabinoid Receptor 2 using an Image-Based Assay - Set 2. [Related pubchem assays (depositor defined):AID1961, AID1965]; type: functional
# T7 sequence (P34972 whole entry): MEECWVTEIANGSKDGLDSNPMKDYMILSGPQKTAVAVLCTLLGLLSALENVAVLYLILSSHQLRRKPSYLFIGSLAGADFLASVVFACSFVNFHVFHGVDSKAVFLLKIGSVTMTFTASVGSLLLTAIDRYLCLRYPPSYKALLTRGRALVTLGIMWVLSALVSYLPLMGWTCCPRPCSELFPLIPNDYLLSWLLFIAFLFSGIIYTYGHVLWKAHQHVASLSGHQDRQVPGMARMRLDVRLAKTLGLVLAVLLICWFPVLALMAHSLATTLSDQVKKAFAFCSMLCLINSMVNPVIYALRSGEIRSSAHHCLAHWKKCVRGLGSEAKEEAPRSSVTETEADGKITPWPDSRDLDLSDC
# [23] = target: T1, G-protein coupled receptor 55; assay: SAR analysis of selective Agonists of GPR55 using an Image-Based Assay - Set 2. [Related pubchem assays (depositor defined):AID1961, AID1965]; type: functional
# [24] = target: T7, Cannabinoid receptor 2; assay: SAR analysis of agonists of the Cannabinoid Receptor 2 using an Image-Based Assay - Set 2. [Related pubchem assays (depositor defined):AID1961, AID1965]; type: functional
# [25] = target: T8, G-protein coupled receptor 35 (Homo sapiens, UniProt Q9HC97); assay: SAR analysis of Agonists of the GPR35 Receptor using an Image-Based Assay - Set 3. [Related pubchem assays (depositor defined):AID1961, AID1965]; type: functional
# T8 sequence (Q9HC97 whole entry): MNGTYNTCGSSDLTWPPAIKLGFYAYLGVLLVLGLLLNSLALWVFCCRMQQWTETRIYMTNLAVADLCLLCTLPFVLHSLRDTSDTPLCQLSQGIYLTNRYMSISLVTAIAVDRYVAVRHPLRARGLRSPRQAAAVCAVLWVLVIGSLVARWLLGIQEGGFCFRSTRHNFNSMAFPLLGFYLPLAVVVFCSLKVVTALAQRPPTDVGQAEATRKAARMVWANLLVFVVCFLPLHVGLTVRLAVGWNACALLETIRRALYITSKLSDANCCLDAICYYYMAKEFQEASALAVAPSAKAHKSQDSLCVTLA
# [26] = target: T9, Cannabinoid receptor 1 (Homo sapiens, UniProt P21554); assay: SAR analysis of antagonists of the Cannabinoid Receptor 1 using an Image-Based Assay - Set 3. [Related pubchem assays (depositor defined):AID1961, AID1965]; type: functional
# T9 sequence (P21554 whole entry): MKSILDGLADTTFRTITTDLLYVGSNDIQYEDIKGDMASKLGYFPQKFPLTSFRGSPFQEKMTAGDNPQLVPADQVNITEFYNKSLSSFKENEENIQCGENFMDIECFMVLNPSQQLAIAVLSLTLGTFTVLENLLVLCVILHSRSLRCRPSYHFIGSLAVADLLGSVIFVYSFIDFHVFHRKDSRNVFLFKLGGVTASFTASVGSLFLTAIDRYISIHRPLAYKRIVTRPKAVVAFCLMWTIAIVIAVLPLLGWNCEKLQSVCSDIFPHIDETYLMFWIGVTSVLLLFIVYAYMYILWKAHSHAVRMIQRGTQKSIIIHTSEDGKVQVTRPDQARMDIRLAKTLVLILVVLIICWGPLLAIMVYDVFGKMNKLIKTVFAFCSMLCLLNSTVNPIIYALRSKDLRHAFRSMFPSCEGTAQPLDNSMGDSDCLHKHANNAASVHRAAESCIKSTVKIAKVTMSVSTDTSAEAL
# [27] = target: T9, Cannabinoid receptor 1; assay: SAR analysis of agonists of the Cannabinoid Receptor 1 using an Image-Based Assay - Set 3. [Related pubchem assays (depositor defined):AID1961, AID1965]; type: functional
# [28] = target: T8, G-protein coupled receptor 35; assay: SAR analysis of Antagonists of the GPR35 Receptor using an Image-Based Assay - Set 4. [Related pubchem assays (depositor defined):[…]]; type: functional
# 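Throughout, for CC50: cells exposed to compound for 72 hours before luminescence readout.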
# T1 sequence (Q9Y2T6 whole entry): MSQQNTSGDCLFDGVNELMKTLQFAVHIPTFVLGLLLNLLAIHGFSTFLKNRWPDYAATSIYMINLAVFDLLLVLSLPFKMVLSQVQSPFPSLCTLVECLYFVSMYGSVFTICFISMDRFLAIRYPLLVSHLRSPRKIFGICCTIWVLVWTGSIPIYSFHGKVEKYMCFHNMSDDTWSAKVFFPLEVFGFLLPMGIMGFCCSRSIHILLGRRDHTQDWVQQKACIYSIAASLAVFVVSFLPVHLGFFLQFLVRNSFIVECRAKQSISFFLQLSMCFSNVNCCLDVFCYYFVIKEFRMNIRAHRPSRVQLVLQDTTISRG
# Sequence of DNA damage-inducible transcript 3 protein (P35639 whole entry): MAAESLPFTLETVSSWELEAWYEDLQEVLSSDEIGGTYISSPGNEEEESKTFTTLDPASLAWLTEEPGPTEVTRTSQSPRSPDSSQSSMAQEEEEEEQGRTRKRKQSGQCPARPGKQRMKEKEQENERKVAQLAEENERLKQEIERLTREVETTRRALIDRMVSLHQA
compound,measurement,setting,value
CCCc1ccc2oc(C(=O)N(Cc3ccncc3)CC3CCCO3)c(C)c2c1 (stereo not drawn),EC50,[1],11.2 µM (inactive)
CC(C)(C)C1C/C(=C/c2ccco2)C(=O)/C(=C/c2ccco2)C1 (stereo not drawn),Absolute IC50 (CHOP),[2],< 10 µM
Cc1ccc(-c2nnc(NC(=O)COc3ccc(F)cc3Cl)o2)cc1C,EC50,[3],1.1 µM (active)
Cc1ccc(S(=O)(=O)NCc2ccc(C(=O)NC3CCN(Cc4ccccc4)CC3)cc2)cc1,IC50,[4],> 32 µM (inactive)
same,IC50,[5],> 20 µM (inactive)
same,IC50,[6],> 32 µM (inactive)
same,IC50,[7],> 32 µM (inactive)
Cc1cc(N2C(=O)C=CC2=O)c([N+](=O)[O-])cc1C,IC50,[8],23.9 µM (active)
same,AC50,[9],4.18 µM (active)
same,IC50,[10],17.7 µM (active)
same,IC50,[11],> 66.6 µM (inactive)
same,AC50,[12],1.07 µM (active)
COc1ccc(C/N=c2\ssnc2Cl)cc1,IC50,[13],15.5 µM (active)
same,IC50,[14],> 100 µM (inactive)
Cc1ccc(Sc2ccc(NC(=O)CCl)cc2)cc1C,CC50,[15],7.87 µM (active)
same,AC50,[16],2.51 µM (active)
same,EC50,[17],0.716 µM (active)
same,EC50,[18],> 89.2 µM (inactive)
CCOc1cc2[nH]c(=S)n(CCN3CCC(C)CC3)c(=O)c2cc1OCC,EC50,[19],> 100 µM (inactive)
O=c1c2cc(N3CCOCC3)ccc2sn1-c1ccccc1,IC50,[20],4.46 µM (active)
Cc1cc(=O)oc2cc(OC(=O)CCN3C(=O)c4ccccc4C3=O)ccc12,IC50,[21],> 50 µM (inactive)
COc1ccc(S(=O)(=O)N2CCOCC2)cc1NC(=O)c1cc2c(s1)CCCCC2,IC50,[22],> 32 µM (inactive)
same,EC50,[23],> 32 µM (inactive)
same,EC50,[24],> 32 µM (inactive)
same,EC50,[25],> 32 µM (inactive)
same,IC50,[26],20.6 µM (inactive)
same,EC50,[27],> 32 µM (inactive)
same,IC50,[28],> 32 µM (inactive)

# — ChEMBL document CHEMBL1201862, “PubChem BioAssay data set” (2004)
